Laboratory results taken from ChEMBL document CHEMBL1201861, “Genomics of Drug Sensitity in Cancer screening data, Wellcome Trust Sanger Institute”.

What was measured:
Assay in all cases: cells
A3-KAW = format: functional, cell-based; conditions: Homo sapiens;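 further: growth inhibition of human A3-KAW cells, read out with a cell viability assay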
Description: SANGER: Inhibition of human A3-KAW cell growth in a cell viability assay.

PSN1 = format: functional, cell-based, Homo sapiens; conditions: Homo sapiens, PSN1;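 further: suppression of growth of human PSN1 cells, read out by a cell viability assay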
Description: SANGER: Inhibition of human PSN1 cell growth in a cell viability assay.

LAMA-84 = format: functional, cell-based; conditions: Homo sapiens;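 further: growth inhibition of LAMA-84 cells, read out with a cell viability assay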
Description: SANGER: Inhibition of human LAMA-84 cell growth in a cell viability assay.

HT = format: functional, cell-based; conditions: Homo sapiens
Description: SANGER: Inhibition of human HT cell growth in a cell viability assay.

LS-513 = format: functional, cell-based, Homo sapiens; conditions: Homo sapiens, LS-513
Description: SANGER: Inhibition of human LS-513 cell growth in a cell viability assay.

TE-12 = format: functional, cell-based; conditions: Homo sapiens;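 further: growth inhibition of TE-12 cells, read out by a cell viability assay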
Description: SANGER: Inhibition of human TE-12 cell growth in a cell viability assay.

GT3TKB = format: functional, cell-based, Homo sapiens; conditions: Homo sapiens, GT3TKB;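 further: growth inhibition of the cell line, read out with a cell viability assay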
Description: SANGER: Inhibition of human GT3TKB cell growth in a cell viability assay.

NEC8 = format: functional, cell-based, Homo sapiens; conditions: Homo sapiens, NEC8;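 further: growth inhibition of human NEC8 cells, read out by a cell viability assay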
Description: SANGER: Inhibition of human NEC8 cell growth in a cell viability assay.

CW-2 = format: functional, cell-based, Homo sapiens; conditions: Homo sapiens, CW-2;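 further: growth inhibition of CW-2 cells, read out by a cell viability assay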
Description: SANGER: Inhibition of human CW-2 cell growth in a cell viability assay.

MPP-89 = format: functional, cell-based, Homo sapiens; conditions: Homo sapiens, MPP-89;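 further: growth inhibition of human MPP-89 cells, read out with a cell viability assay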
Description: SANGER: Inhibition of human MPP-89 cell growth in a cell viability assay.

LB2518-MEL = format: functional, cell-based, Homo sapiens; conditions: Homo sapiens, LB2518-MEL;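 further: growth inhibition of human LB2518-MEL cells, measured with a cell viability assay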
Description: SANGER: Inhibition of human LB2518-MEL cell growth in a cell viability assay.

LU-139 = format: functional, cell-based; conditions: Homo sapiens
Description: SANGER: Inhibition of human LU-139 cell growth in a cell viability assay.

COLO-824 = format: functional, cell-based, Homo sapiens; conditions: Homo sapiens, COLO-824
Description: SANGER: Inhibition of human COLO-824 cell growth in a cell viability assay.

AM-38 = format: functional, cell-based, Homo sapiens; conditions: Homo sapiens, AM-38;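 further: growth inhibition of AM-38 cells of human origin, read out by a cell viability assay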
HH = format: functional, cell-based; conditions: Homo sapiens
Description: SANGER: Inhibition of human HH cell growth in a cell viability assay.

ONS-76 = format: functional, cell-based, Homo sapiens; conditions: Homo sapiens, ONS-76;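 further: growth inhibition of human ONS-76 cells, read out with a cell viability assay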
NOS-1 = format: functional, cell-based, Homo sapiens; conditions: Homo sapiens, NOS-1;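 further: growth inhibition of the human NOS-1 cell line, read out with a cell viability assay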
Description: SANGER: Inhibition of human NOS-1 cell growth in a cell viability assay.

TE-9 = format: functional, cell-based, Homo sapiens; conditions: Homo sapiens, TE-9;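 further: cell growth inhibition, measured with a cell viability readout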
Description: SANGER: Inhibition of human TE-9 cell growth in a cell viability assay.

NCI-H2126 = format: functional, cell-based, Homo sapiens; conditions: Homo sapiens, NCI-H2126;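 further: growth inhibition of the cancer cell line, determined with a cell viability readout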
Description: SANGER: Inhibition of human NCI-H2126 cell growth in a cell viability assay.

NCI-H747 = format: functional, cell-based; conditions: Homo sapiens;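 further: growth inhibition of human NCI-H747 cells, read out by a cell viability assay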
HEL = format: functional, cell-based, Homo sapiens; conditions: Homo sapiens, HEL;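 further: growth inhibition of HEL cells, read out with a cell viability assay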
Description: SANGER: Inhibition of human HEL cell growth in a cell viability assay.

EW-13 = format: functional, cell-based; conditions: Homo sapiens;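 further: growth inhibition of EW-13 cells, read out with a cell viability assay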
Description: SANGER: Inhibition of human EW-13 cell growth in a cell viability assay.

NCI-H720 = format: functional, cell-based; conditions: Homo sapiens;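 further: growth inhibition of human NCI-H720 cells determined by a cell viability assay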
Description: SANGER: Inhibition of human NCI-H720 cell growth in a cell viability assay.

LS-411N = format: functional, cell-based, Homo sapiens; conditions: Homo sapiens, LS-411N
EM-2 = format: functional, cell-based; conditions: Homo sapiens;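 further: growth inhibition of EM-2 cells, read out with a cell viability assay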
Description: SANGER: Inhibition of human EM-2 cell growth in a cell viability assay.

CN1CCN(CCOc2cc(OC3CCOCC3)c3c(Nc4c(Cl)ccc5c4OCO5)ncnc3c2)CC1 [SARACATINIB]
IC50 (A3-KAW): > 2000 nM
IC50 (PSN1): > 2000 nM
IC50 (LAMA-84): 160 nM
IC50 (HT): > 2000 nM
IC50 (LS-513): > 2000 nM
IC50 (TE-12): 327 nM
IC50 (GT3TKB): > 2000 nM
IC50 (NEC8): > 2000 nM
IC50 (CW-2): > 2000 nM
IC50 (MPP-89): > 2000 nM
IC50 (LB2518-MEL): > 2000 nM
IC50 (LU-139): > 2000 nM
IC50 (COLO-824): > 2000 nM
IC50 (AM-38): > 2000 nM
IC50 (HH): > 2000 nM
IC50 (ONS-76): > 2000 nM
IC50 (NOS-1): 605 nM
IC50 (TE-9): > 2000 nM
IC50 (NCI-H2126): > 2000 nM
IC50 (NCI-H747): > 2000 nM
IC50 (HEL): > 2000 nM
IC50 (EW-13): > 2000 nM
IC50 (NCI-H720): > 2000 nM
IC50 (LS-411N): > 2000 nM
IC50 (EM-2): 265 nM

CO[C@H]1C[C@@H]2CC[C@@H](C)[C@@](O)(O2)C(=O)C(=O)N2CCCC[C@H]2C(=O)O[C@H]([C@H](C)C[C@@H]2CC[C@@H](O)[C@H](OC)C2)CC(=O)[C@H](C)/C=C(\C)[C@@H](O)[C@@H](OC)C(=O)[C@H](C)C[C@H](C)/C=C/C=C/C=C/1C [SIROLIMUS]
IC50 (A3-KAW): 2.99 nM
IC50 (PSN1): > 100 nM
IC50 (LAMA-84): > 100 nM
IC50 (HT): 17.6 nM
IC50 (LS-513): > 100 nM
IC50 (TE-12): > 100 nM
IC50 (GT3TKB): > 100 nM
IC50 (NEC8): > 100 nM
IC50 (CW-2): > 100 nM
IC50 (MPP-89): > 100 nM
IC50 (LB2518-MEL): > 100 nM
IC50 (LU-139): > 100 nM
IC50 (COLO-824): > 100 nM
IC50 (AM-38): > 100 nM
IC50 (HH): 11.4 nM
IC50 (ONS-76): > 100 nM
IC50 (NOS-1): 0.871 nM
IC50 (TE-9): > 100 nM
IC50 (NCI-H2126): > 100 nM
IC50 (NCI-H747): > 100 nM
IC50 (HEL): 49.8 nM
IC50 (EW-13): > 100 nM
IC50 (NCI-H720): 25.4 nM
IC50 (LS-411N): 77.6 nM
IC50 (EM-2): 38.5 nM

CNC(=O)c1cc(Oc2ccc(NC(=O)Nc3ccc(Cl)c(C(F)(F)F)c3)cc2)ccn1 [SORAFENIB]
IC50 (A3-KAW): 1880 nM
IC50 (PSN1): > 4000 nM
IC50 (LAMA-84): 1380 nM
IC50 (HT): > 4000 nM
IC50 (LS-513): > 4000 nM
IC50 (TE-12): > 4000 nM
IC50 (GT3TKB): > 4000 nM
IC50 (NEC8): > 4000 nM
IC50 (CW-2): > 4000 nM
IC50 (MPP-89): > 4000 nM
IC50 (LB2518-MEL): 1210 nM
IC50 (LU-139): > 4000 nM
IC50 (COLO-824): > 4000 nM
IC50 (AM-38): > 4000 nM
IC50 (HH): > 4000 nM
IC50 (ONS-76): > 4000 nM
IC50 (NOS-1): 564 nM
IC50 (TE-9): > 4000 nM
IC50 (NCI-H2126): > 4000 nM
IC50 (NCI-H747): > 4000 nM
IC50 (HEL): > 4000 nM
IC50 (EW-13): > 4000 nM
IC50 (NCI-H720): > 4000 nM
IC50 (LS-411N): > 4000 nM
IC50 (EM-2): 1360 nM

CCC(=O)N1CCN(c2ccc(-n3c(=O)ccc4cnc5ccc(-c6cnc7ccccc7c6)cc5c43)cc2C(F)(F)F)CC1 [TORIN1]
IC50 (A3-KAW): 62.2 nM
IC50 (PSN1): 14.1 nM
IC50 (LAMA-84): 21.7 nM
IC50 (HT): 80 nM
IC50 (LS-513): 391 nM
IC50 (TE-12): 25.5 nM
IC50 (GT3TKB): 109 nM
IC50 (NEC8): 562 nM
IC50 (CW-2): > 1200 nM
IC50 (MPP-89): 181 nM
IC50 (LB2518-MEL): 87 nM
IC50 (LU-139): 130 nM
IC50 (COLO-824): 878 nM
IC50 (AM-38): > 1200 nM
IC50 (HH): 135 nM
IC50 (ONS-76): 131 nM
IC50 (NOS-1): 2.42 nM
IC50 (TE-9): 290 nM
IC50 (NCI-H2126): 114 nM
IC50 (NCI-H747): 23.3 nM
IC50 (HEL): 16.4 nM
IC50 (EW-13): > 1200 nM
IC50 (NCI-H720): 550 nM
IC50 (LS-411N): 14.4 nM
IC50 (EM-2): 115 nM

Cc1cc(Nc2cc(N3CCN(C)CC3)nc(Sc3ccc(NC(=O)C4CC4)cc3)n2)n[nH]1 [TOZASERTIB]
IC50 (A3-KAW): > 2000 nM
IC50 (PSN1): 220 nM
IC50 (LAMA-84): 352 nM
IC50 (HT): > 2000 nM
IC50 (LS-513): > 2000 nM
IC50 (TE-12): > 2000 nM
IC50 (GT3TKB): 1280 nM
IC50 (NEC8): > 2000 nM
IC50 (CW-2): > 2000 nM
IC50 (MPP-89): > 2000 nM
IC50 (LB2518-MEL): > 2000 nM
IC50 (LU-139): > 2000 nM
IC50 (COLO-824): > 2000 nM
IC50 (AM-38): > 2000 nM
IC50 (HH): > 2000 nM
IC50 (ONS-76): 665 nM
IC50 (NOS-1): > 2000 nM
IC50 (TE-9): > 2000 nM
IC50 (NCI-H2126): > 2000 nM
IC50 (NCI-H747): > 2000 nM
IC50 (HEL): > 2000 nM
IC50 (EW-13): > 2000 nM
IC50 (NCI-H720): > 2000 nM
IC50 (LS-411N): 578 nM
IC50 (EM-2): 266 nM
